One test relates to A549. The experiment in a line: Antiproliferative activity against human A549 cells assessed as reduction in cell viability incubated for 72 hr by MTT assay. Particulars: A549, 72 h. (Tetrazolium assays rely on reduction of a dye to a coloured formazan, in cell work by metabolically active cells.)
The subject of the next test is NCI-H2228. Nature of the test: Antiproliferative activity against human H2228 cells assessed as reduction in cell viability incubated for 72 hrs by MTT assay. The note with it: NCI-H2228, 72 h. It counts as functional, cell-based.
The subject of a further test is KARPAS-299. The experiment in a line: Antiproliferative activity against human Karpas299 cells assessed as reduction in cell viability incubated for 72 hrs by MTT assay. The note with it: KARPAS-299, 72 h.
Test [1] has as its target ALK tyrosine kinase receptor (Homo sapiens, UniProt Q9UM73). Nature of the test: Inhibition of wild-type ALK (unknown origin) incubated for 1 hr.
Test [2] concerns the target ALK tyrosine kinase receptor (Homo sapiens, UniProt Q9UM73, L1196M). Nature of the test: Inhibition of ALK L1196M (unknown origin) incubated for 1 hr.

ALK tyrosine kinase receptor (Homo sapiens, UniProt Q9UM73, L1196M), sequence (Q9UM73 19-1620 L1196M limits assumed): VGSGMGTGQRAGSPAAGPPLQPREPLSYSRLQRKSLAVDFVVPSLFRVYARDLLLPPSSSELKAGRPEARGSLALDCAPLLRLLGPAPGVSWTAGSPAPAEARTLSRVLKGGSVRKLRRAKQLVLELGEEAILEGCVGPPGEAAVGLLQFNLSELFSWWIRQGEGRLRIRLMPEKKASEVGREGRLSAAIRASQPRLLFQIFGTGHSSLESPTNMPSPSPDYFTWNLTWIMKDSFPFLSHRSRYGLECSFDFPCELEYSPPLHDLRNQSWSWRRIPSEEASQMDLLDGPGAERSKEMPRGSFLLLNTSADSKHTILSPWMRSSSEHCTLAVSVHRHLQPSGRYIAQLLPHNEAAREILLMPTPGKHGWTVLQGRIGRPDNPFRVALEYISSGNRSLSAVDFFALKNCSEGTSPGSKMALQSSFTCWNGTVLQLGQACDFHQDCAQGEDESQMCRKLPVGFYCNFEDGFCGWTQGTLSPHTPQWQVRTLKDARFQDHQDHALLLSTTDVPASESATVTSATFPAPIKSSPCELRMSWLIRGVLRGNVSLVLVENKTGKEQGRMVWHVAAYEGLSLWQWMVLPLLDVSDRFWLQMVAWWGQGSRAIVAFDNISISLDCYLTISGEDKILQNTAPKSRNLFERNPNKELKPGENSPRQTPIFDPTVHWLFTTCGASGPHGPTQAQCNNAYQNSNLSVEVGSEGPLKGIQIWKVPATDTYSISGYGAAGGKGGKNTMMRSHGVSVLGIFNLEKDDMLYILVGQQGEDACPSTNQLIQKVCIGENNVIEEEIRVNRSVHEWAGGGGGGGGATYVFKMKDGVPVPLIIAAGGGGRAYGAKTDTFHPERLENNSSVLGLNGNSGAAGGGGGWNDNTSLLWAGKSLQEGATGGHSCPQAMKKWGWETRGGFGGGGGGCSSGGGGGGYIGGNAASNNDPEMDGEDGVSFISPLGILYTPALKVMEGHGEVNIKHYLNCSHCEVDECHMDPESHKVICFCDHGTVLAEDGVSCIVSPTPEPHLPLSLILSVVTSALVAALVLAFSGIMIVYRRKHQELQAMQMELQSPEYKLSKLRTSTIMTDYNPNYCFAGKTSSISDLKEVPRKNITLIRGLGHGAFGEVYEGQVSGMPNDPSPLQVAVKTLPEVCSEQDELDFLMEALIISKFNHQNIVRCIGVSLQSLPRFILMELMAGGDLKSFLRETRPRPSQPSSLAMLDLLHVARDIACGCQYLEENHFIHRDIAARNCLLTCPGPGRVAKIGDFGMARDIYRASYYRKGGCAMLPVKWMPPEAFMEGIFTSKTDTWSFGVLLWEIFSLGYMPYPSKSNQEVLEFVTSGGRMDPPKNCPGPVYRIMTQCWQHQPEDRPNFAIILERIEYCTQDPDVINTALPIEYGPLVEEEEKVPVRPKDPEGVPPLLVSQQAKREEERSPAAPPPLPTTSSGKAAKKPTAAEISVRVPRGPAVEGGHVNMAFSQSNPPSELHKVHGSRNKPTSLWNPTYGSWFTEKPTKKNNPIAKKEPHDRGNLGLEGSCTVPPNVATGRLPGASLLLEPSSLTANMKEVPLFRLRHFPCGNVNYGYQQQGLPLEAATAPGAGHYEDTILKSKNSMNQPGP
ALK tyrosine kinase receptor (Homo sapiens, UniProt Q9UM73), sequence (Q9UM73 whole entry): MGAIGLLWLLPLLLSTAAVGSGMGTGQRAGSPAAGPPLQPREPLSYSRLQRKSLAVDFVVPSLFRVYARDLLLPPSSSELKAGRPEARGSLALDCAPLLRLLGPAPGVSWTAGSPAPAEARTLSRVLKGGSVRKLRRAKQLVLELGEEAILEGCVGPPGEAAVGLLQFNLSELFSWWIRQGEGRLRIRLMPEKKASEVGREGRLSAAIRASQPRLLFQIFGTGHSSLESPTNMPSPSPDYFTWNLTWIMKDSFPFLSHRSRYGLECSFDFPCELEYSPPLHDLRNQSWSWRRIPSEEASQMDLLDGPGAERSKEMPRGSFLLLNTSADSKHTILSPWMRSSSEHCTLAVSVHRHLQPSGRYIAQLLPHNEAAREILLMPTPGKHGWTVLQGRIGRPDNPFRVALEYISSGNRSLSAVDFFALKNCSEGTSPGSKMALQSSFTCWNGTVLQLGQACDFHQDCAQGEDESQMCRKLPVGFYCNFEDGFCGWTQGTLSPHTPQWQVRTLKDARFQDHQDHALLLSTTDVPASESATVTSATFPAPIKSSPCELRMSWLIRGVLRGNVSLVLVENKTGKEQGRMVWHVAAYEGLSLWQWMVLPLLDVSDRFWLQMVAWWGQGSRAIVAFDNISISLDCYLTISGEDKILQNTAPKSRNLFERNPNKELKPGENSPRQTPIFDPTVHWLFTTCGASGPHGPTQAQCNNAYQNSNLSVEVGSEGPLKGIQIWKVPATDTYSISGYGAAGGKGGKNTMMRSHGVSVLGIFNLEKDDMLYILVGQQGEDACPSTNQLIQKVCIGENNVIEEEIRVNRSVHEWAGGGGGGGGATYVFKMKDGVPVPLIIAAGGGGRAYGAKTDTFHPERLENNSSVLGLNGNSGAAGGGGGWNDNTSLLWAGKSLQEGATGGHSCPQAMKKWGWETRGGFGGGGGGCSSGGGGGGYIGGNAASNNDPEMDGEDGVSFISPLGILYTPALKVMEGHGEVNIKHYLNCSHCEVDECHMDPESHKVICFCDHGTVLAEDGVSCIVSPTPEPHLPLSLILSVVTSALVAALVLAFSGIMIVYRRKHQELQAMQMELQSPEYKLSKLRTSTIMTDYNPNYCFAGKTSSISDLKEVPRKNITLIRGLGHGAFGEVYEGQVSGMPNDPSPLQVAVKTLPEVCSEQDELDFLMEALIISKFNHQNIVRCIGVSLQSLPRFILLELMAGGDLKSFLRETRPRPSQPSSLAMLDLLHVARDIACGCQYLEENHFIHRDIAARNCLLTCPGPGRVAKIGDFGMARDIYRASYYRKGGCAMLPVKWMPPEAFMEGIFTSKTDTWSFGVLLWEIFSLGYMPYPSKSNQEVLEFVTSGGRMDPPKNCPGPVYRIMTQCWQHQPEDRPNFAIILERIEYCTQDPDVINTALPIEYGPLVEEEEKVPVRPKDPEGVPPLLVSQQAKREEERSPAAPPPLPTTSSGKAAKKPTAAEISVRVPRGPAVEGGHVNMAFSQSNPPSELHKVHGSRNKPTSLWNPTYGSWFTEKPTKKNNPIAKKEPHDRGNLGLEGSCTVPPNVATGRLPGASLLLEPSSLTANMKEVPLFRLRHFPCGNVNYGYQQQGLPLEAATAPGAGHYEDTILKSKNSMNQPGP

For the molecule `CCN(CC)C(=O)c1cccn1-c1ccc(Nc2ncc(Cl)c(Nc3ccccc3NS(C)(=O)=O)n2)c(OC)c1`, the IC50 in the test on A549 turned out to be 970 nM; in the test on NCI-H2228, 87 nM; in the test on KARPAS-299, 105 nM.
For `CNC(=O)c1ccccc1Nc1nc(Nc2ccc(-n3cccc3C(=O)N3CCC(C)CC3)cc2OC)ncc1Cl` the same measures were above 10000 nM, 1070 nM and 2310 nM.
In the same order, the values of `COc1cc(-n2cccc2C(=O)N(C)C)ccc1Nc1ncc(Cl)c(Nc2ccccc2NS(C)(=O)=O)n1` are above 10000 nM, 54 nM and 78 nM.
In the same order, the values of `COc1cc(-n2cccc2C(=O)N2CCCC2)ccc1Nc1ncc(Cl)c(Nc2ccccc2NS(C)(=O)=O)n1` are 4580 nM, 600 nM and 870 nM.
As to `CNC(=O)c1ccccc1Nc1nc(Nc2ccc(-n3cccc3C(=O)N3CCN(C)CC3)cc2OC)ncc1Cl`, the IC50 in the test with A549 was above 10000 nM; in the test on NCI-H2228, 980 nM; in the test with KARPAS-299, 90 nM.
For `COc1cc(-n2cccc2C(=O)N2CCC(C)CC2)ccc1Nc1ncc(Cl)c(Nc2ccccc2NS(C)(=O)=O)n1` the same measures were 2200 nM, 1050 nM and 1370 nM.
In the same order, the values of `CNC(=O)c1ccccc1Nc1nc(Nc2ccc(-n3cccc3C(=O)O)cc2OC)ncc1Cl` are 2490 nM, 87 nM and 170 nM.
On to `COc1cc(-n2cccc2C(=O)N2CCC(O)CC2)ccc1Nc1ncc(Cl)c(Nc2ccccc2NS(C)(=O)=O)n1`, for which the IC50 was above 10000 nM in the test with A549, 660 nM in the test on NCI-H2228 and 970 nM in the test with KARPAS-299.
In the same order, the values of `CNC(=O)c1ccccc1Nc1nc(Nc2ccc(-n3cccc3C(=O)N3CCN(CCO)CC3)cc2OC)ncc1Cl` are above 10000 nM, 1410 nM and 430 nM.
Regarding `COc1cc(-n2cccc2C(=O)N2CCCCC2)ccc1Nc1ncc(Cl)c(Nc2ccccc2NS(C)(=O)=O)n1`, the 50% inhibitory concentration (IC50) is above 10000 nM in the test on A549, 630 nM in the test with NCI-H2228 and 1040 nM in the test with KARPAS-299.
As for `CCN1CCN(C(=O)c2cccn2-c2ccc(Nc3ncc(Cl)c(Nc4ccccc4NS(C)(=O)=O)n3)c(OC)c2)CC1`, the IC50 in test [1] was 8.5 nM; in test [2], 11.7 nM; with A549, above 10000 nM; with NCI-H2228, 1130 nM; with KARPAS-299, 1410 nM.
Turning to `CNC(=O)c1ccccc1Nc1nc(Nc2ccc(-n3cccc3C(=O)N3CCSCC3)cc2OC)ncc1Cl`, the IC50 turned out to be 2180 nM with A549, 1040 nM with NCI-H2228 and 1140 nM in the test on KARPAS-299.
In the same order, the values of `CNC(=O)c1ccccc1Nc1nc(Nc2ccc(-n3cccc3C(=O)N(C)C)cc2OC)ncc1Cl` are 4120 nM, 89 nM and 1070 nM.
Turning to `CNC(=O)c1ccccc1Nc1nc(Nc2ccc(-n3cccc3C(=O)NCCO)cc2OC)ncc1Cl`, the IC50 in test [1] is 9.6 nM; in test [2] it was 13.4 nM; in the test on A549 it was above 10000 nM; with NCI-H2228 it was 43 nM; in the test with KARPAS-299 it was 790 nM.
On to `CNC(=O)c1ccccc1Nc1nc(Nc2ccc(-n3cccc3C(=O)OC)cc2OC)ncc1Cl`, for which the IC50 was determined as 8510 nM in the test with A549, 970 nM in the test with NCI-H2228 and 890 nM in the test on KARPAS-299.
In the same order, the values of `CNC(=O)c1ccccc1Nc1nc(Nc2ccc(-n3cccc3C(=O)N3CCOCC3)cc2OC)ncc1Cl` are 2210 nM, 840 nM and 1030 nM.
For `CNC(=O)c1ccccc1Nc1nc(Nc2ccc(-n3cccc3C(=O)N3CCC(O)CC3)cc2OC)ncc1Cl` the same measures were above 10000 nM, 1070 nM and 970 nM.
With `COc1cc(-n2cccc2C(=O)NCCO)ccc1Nc1ncc(Cl)c(Nc2ccccc2NS(C)(=O)=O)n1`, the 50% inhibitory concentration (IC50) is 1.9 nM in test [1]; 3.1 nM in test [2]; above 10000 nM in the test with A549; 34 nM with NCI-H2228; 45 nM in the test with KARPAS-299.
As for `COc1cc(-n2cccc2C(=O)N2CCOCC2)ccc1Nc1ncc(Cl)c(Nc2ccccc2NS(C)(=O)=O)n1`, the half-inhibitory concentration (IC50) turned out to be 1770 nM in the test on A549, 610 nM with NCI-H2228 and 640 nM in the test with KARPAS-299.
Turning to `COc1cc(-n2cccc2C(=O)N2CCSCC2)ccc1Nc1ncc(Cl)c(Nc2ccccc2NS(C)(=O)=O)n1`, the concentration for half-maximal inhibition (IC50) in test [1] came out at 4.5 nM; in test [2], 8.3 nM; in the test on A549, 1470 nM; with NCI-H2228 it was 700 nM; with KARPAS-299, 930 nM.
With `COC(=O)c1cccn1-c1ccc(Nc2ncc(Cl)c(Nc3ccccc3NS(C)(=O)=O)n2)c(OC)c1`, the IC50 with A549 worked out at 2510 nM; in the test on NCI-H2228, 950 nM; in the test on KARPAS-299 it was 790 nM.
Regarding `COc1cc(-n2cccc2C(=O)O)ccc1Nc1ncc(Cl)c(Nc2ccccc2NS(C)(=O)=O)n1`, the concentration for half-maximal inhibition (IC50) in the test on A549 amounted to 1060 nM; in the test with NCI-H2228 it was 64 nM; in the test on KARPAS-299, 72 nM.
On to `CCN(CC)C(=O)c1cccn1-c1ccc(Nc2ncc(Cl)c(Nc3ccccc3C(=O)NC)n2)c(OC)c1`, for which the half-maximal inhibitory concentration (IC50) worked out at 3490 nM with A549, 540 nM in the test on NCI-H2228 and 270 nM in the test with KARPAS-299.
For `COc1cc(-n2cccc2C(=O)N2CCN(CCO)CC2)ccc1Nc1ncc(Cl)c(Nc2ccccc2NS(C)(=O)=O)n1` the same measures were above 10000 nM, 1080 nM and 1250 nM.
In the case of `CNC(=O)c1ccccc1Nc1nc(Nc2ccc(-n3cccc3C(=O)N3CCCCC3)cc2OC)ncc1Cl`, the 50% inhibitory concentration (IC50) was above 10000 nM with A549, 990 nM in the test with NCI-H2228 and 1610 nM in the test with KARPAS-299.
For `COc1cc(-n2cccc2C(=O)N2CCN(C)CC2)ccc1Nc1ncc(Cl)c(Nc2ccccc2NS(C)(=O)=O)n1` the same measures were above 10000 nM, 1050 nM and 970 nM.
For `CNC(=O)c1ccccc1Nc1nc(Nc2ccc(-n3cccc3C(=O)N3CCCC3)cc2OC)ncc1Cl`, the IC50 in the test on A549 is above 10000 nM; in the test with NCI-H2228 it was 770 nM; in the test with KARPAS-299 it was 840 nM.
For the molecule `CCN1CCN(C(=O)c2cccn2-c2ccc(Nc3ncc(Cl)c(Nc4ccccc4C(=O)NC)n3)c(OC)c2)CC1`, the IC50 with A549 amounted to 1570 nM; with NCI-H2228, 1270 nM; in the test on KARPAS-299, 940 nM.
For `COc1cc(-n2cccc2C(=O)N2CC(O)C2)ccc1Nc1ncc(Cl)c(Nc2ccccc2NS(C)(=O)=O)n1` the same measures were 2080 nM, 44 nM and 81 nM.
In the same order, the values of `CNC(=O)c1ccccc1Nc1nc(Nc2ccc(-n3cccc3C(=O)N3CC(O)C3)cc2OC)ncc1Cl` are 4130 nM, 44 nM and 740 nM.
For the molecule `Cc1cc(Nc2ncc(Cl)c(Nc3ccccc3S(=O)(=O)C(C)C)n2)c(OC(C)C)cc1C1CCNCC1` [CERITINIB], the IC50 in the test on NCI-H2228 stood at 1070 nM.

A word on the IC50: it is the concentration at which inhibition is half-maximal.

Source of the values: ChEMBL document CHEMBL4665881, “Pyrroformyl-containing 2,4-diaminopyrimidine derivatives as a new optimization strategy of ALK inhibitors combating mutations” (Bioorg Med Chem, 2020).
